Test results: ChEMBL document CHEMBL5143587, “Antitumor Effect of Manool in a Murine Melanoma Model” (J Nat Prod, 2022)
Activity calls are given as the source filed them. The calls are words filed in the database; no cut-off is given here.

How the values were obtained:
B16-F10 [1] = experiment: Antitumor activity against mouse B16-F10 cells bearing C57BL/6 mouse assessed as reduction in tumor weight at 20 mg/kg, po administered once daily for consecutive 5 days in presence of cisplatin relative to control; format: functional; design: scale not given: the % may be the effect or the level left; settings: time 5 day
[2] = Genotoxicity in C57BL/6 mouse xenografted with mouse B16-F10 cells assessed as ratio of polychromatic erythrocytes to total erythrocytes in bone marrow cells at 20 mg/kg, ip for consecutive 5 days (reference value: 0.91+/-0.01); format: toxicity, organism-based; settings: in vivo, 120 h, time 5 day
[3] = Toxicity in C57BL/6 mouse xenografted with mouse B16-F10 cells assessed as change in heart weight at 20 to 40 mg/kg, ip administered once daily for consecutive 5 days relative to control; format: organism-based; settings: in vivo, 120 h, dose 20-40 mg/kg, time 5 day
[4] = Toxicity in C57BL/6 mouse xenografted with mouse B16-F10 cells assessed as change in heart weight at 20 to 40 mg/kg, sc administered once daily for consecutive 5 days relative to control; format: organism-based; settings: in vivo, 120 h, dose 20-40 mg/kg, time 5 day
B16-F10 [5] = experiment: Antitumor activity against mouse B16-F10 cells bearing C57BL/6 mouse assessed as reduction in tumor weight at 40 mg/kg, po administered once daily for consecutive 5 days relative to control; format: functional; design: scale not given: the % may be the effect or the level left; settings: time 5 day
[6] = Toxicity in C57BL/6 mouse xenografted with mouse B16-F10 cells assessed as splenomegaly at 40 mg/kg, ip administered once daily for consecutive 5 days; format: organism-based; settings: in vivo, 120 h, time 5 day
[7] = Toxicity in C57BL/6 mouse xenografted with mouse B16-F10 cells assessed as change in body weight at 20 to 40 mg/kg, sc administered once daily for consecutive 5 days; format: organism-based; settings: in vivo, 120 h, dose 20-40 mg/kg, time 5 day
[8] = Toxicity in C57BL/6 mouse xenografted with mouse B16-F10 cells assessed as change in lung weight at 20 to 40 mg/kg, sc administered once daily for consecutive 5 days relative to control; format: organism-based; settings: in vivo, 120 h, dose 20-40 mg/kg, time 5 day
[9] = Genotoxicity in C57BL/6 mouse xenografted with mouse B16-F10 cells assessed as micronucleated polychromatic erythrocytes frequency in bone marrow cells at 40 mg/kg, po for consecutive 5 days (reference value: 6.00 +/-1.00); format: toxicity, organism-based; settings: in vivo, 120 h, time 5 day
[10] = Genotoxicity in C57BL/6 mouse xenografted with mouse B16-F10 cells assessed as micronucleated polychromatic erythrocytes frequency in bone marrow cells at 40 mg/kg, sc for consecutive 5 days (reference value: 10.00 +/-2.00); format: toxicity, organism-based; settings: in vivo, 120 h, time 5 day
[11] = Toxicity in C57BL/6 mouse xenografted with mouse B16-F10 cells assessed as splenomegaly at 40 mg/kg, sc administered once daily for consecutive 5 days; format: organism-based; settings: in vivo, 120 h, time 5 day
B16-F10 [12] = experiment: Antitumor activity against mouse B16-F10 cells bearing C57BL/6 mouse assessed as reduction in tumor weight at 20 mg/kg, ip administered once daily for consecutive 5 days relative to control (reference value: 71.1%); format: functional; design: scale not given: the % may be the effect or the level left; settings: time 5 day
[13] = Toxicity in C57BL/6 mouse xenografted with mouse B16-F10 cells assessed as change in lung weight at 20 to 40 mg/kg, po administered once daily for consecutive 5 days relative to control; format: organism-based; settings: in vivo, 120 h, dose 20-40 mg/kg, time 5 day
[14] = Genotoxicity in C57BL/6 mouse xenografted with mouse B16-F10 cells assessed as micronucleated polychromatic erythrocytes frequency in bone marrow cells at 20 mg/kg, ip for consecutive 5 days (reference value: 8.00); format: toxicity, organism-based; settings: in vivo, 120 h, time 5 day
[15] = Toxicity in C57BL/6 mouse xenografted with mouse B16-F10 cells assessed as change in heart weight at 20 to 40 mg/kg, po administered once daily for consecutive 5 days relative to control; format: organism-based; settings: in vivo, 120 h, dose 20-40 mg/kg, time 5 day
[16] = Toxicity in C57BL/6 mouse xenografted with mouse B16-F10 cells assessed as change in lung weight at 20 to 40 mg/kg, ip administered once daily for consecutive 5 days relative to control; format: organism-based; settings: in vivo, 120 h, dose 20-40 mg/kg, time 5 day
[17] = Toxicity in C57BL/6 mouse xenografted with mouse B16-F10 cells assessed as reduction in spleen weight at 20 mg/kg, sc administered once daily for consecutive 5 days; format: organism-based; settings: in vivo, 120 h, time 5 day
B16-F10 [18] = experiment: Antitumor activity against mouse B16-F10 cells bearing C57BL/6 mouse assessed as reduction in tumor weight at 20 mg/kg, po administered once daily for consecutive 5 days relative to control; format: functional; design: scale not given: the % may be the effect or the level left; settings: time 5 day
[19] = Toxicity in C57BL/6 mouse xenografted with mouse B16-F10 cells assessed as change in kidney weight at 20 to 40 mg/kg, sc administered once daily for consecutive 5 days relative to control; format: organism-based; settings: in vivo, 120 h, dose 20-40 mg/kg, time 5 day
[20] = Genotoxicity in C57BL/6 mouse xenografted with mouse B16-F10 cells assessed as ratio of polychromatic erythrocytes to total erythrocytes in bone marrow cells at 20 mg/kg, sc for consecutive 5 days (reference value: 0.60 +/-0.01); format: toxicity, organism-based; settings: in vivo, 120 h, time 5 day
[21] = Genotoxicity in C57BL/6 mouse xenografted with mouse B16-F10 cells assessed as ratio of polychromatic erythrocytes to total erythrocytes in bone marrow cells at 40 mg/kg, ip for consecutive 5 days (reference value: 0.91+/-0.01); format: toxicity, organism-based; settings: in vivo, 120 h, time 5 day
[22] = Toxicity in C57BL/6 mouse xenografted with mouse B16-F10 cells assessed as reduction in spleen weight at 20 mg/kg, po administered once daily for consecutive 5 days; format: organism-based; settings: in vivo, 120 h, time 5 day
[23] = Genotoxicity in C57BL/6 mouse xenografted with mouse B16-F10 cells assessed as ratio of polychromatic erythrocytes to total erythrocytes in bone marrow cells at 20 mg/kg, po for consecutive 5 days (reference value: 0.90 +/-0.04); format: toxicity, organism-based; settings: in vivo, 120 h, time 5 day
[24] = Toxicity in C57BL/6 mouse xenografted with mouse B16-F10 cells assessed as change in kidney weight at 20 to 40 mg/kg, po administered once daily for consecutive 5 days relative to control; format: organism-based; settings: in vivo, 120 h, dose 20-40 mg/kg, time 5 day
[25] = Toxicity in C57BL/6 mouse xenografted with mouse B16-F10 cells assessed as change in body weight at 20 to 40 mg/kg, ip administered once daily for consecutive 5 days; format: organism-based; settings: in vivo, 120 h, dose 20-40 mg/kg, time 5 day
B16-F10 [26] = experiment: Antitumor activity against mouse B16-F10 cells bearing C57BL/6 mouse assessed as reduction in mitotic figures at 40 mg/kg, ip administered once daily for consecutive 5 days by H and E staining microscopic analysis; format: functional, organism-based; settings: time 5.0 day
B16-F10 [27] = experiment: Antitumor activity against mouse B16-F10 cells bearing C57BL/6 mouse assessed as reduction in tumor weight at 20 mg/kg, sc administered once daily for consecutive 5 days relative to control (reference value: 50.7%); format: functional; design: scale not given: the % may be the effect or the level left; settings: time 5 day
[28] = Genotoxicity in C57BL/6 mouse xenografted with mouse B16-F10 cells assessed as ratio of polychromatic erythrocytes to total erythrocytes in bone marrow cells at 40 mg/kg, po for consecutive 5 days (reference value: 0.90 +/-0.04); format: toxicity, organism-based; settings: in vivo, 120 h, time 5 day
[29] = Genotoxicity in C57BL/6 mouse xenografted with mouse B16-F10 cells assessed as micronucleated polychromatic erythrocytes frequency in bone marrow cells at 20 mg/kg, po for consecutive 5 days (reference value: 6.00 +/-1.00); format: toxicity, organism-based; settings: in vivo, 120 h, time 5 day
B16-F10 [30] = experiment: Antitumor activity against mouse B16-F10 cells bearing C57BL/6 mouse assessed as reduction in number of mitotic figures at 20 mg/kg, po administered once daily for consecutive 5 days in presence of cisplatin by H and E staining microscopic analysis; format: functional, organism-based; settings: time 5.0 day
[31] = Toxicity in C57BL/6 mouse xenografted with mouse B16-F10 cells assessed as splenomegaly at 20 mg/kg, ip administered once daily for consecutive 5 days; format: organism-based; settings: in vivo, 120 h, time 5 day
[32] = Toxicity in C57BL/6 mouse xenografted with mouse B16-F10 cells assessed as splenomegaly at 40 mg/kg, po administered once daily for consecutive 5 days; format: organism-based; settings: in vivo, 120 h, time 5 day
[33] = Toxicity in C57BL/6 mouse xenografted with mouse B16-F10 cells assessed as change in kidney weight at 20 to 40 mg/kg, ip administered once daily for consecutive 5 days relative to control; format: organism-based; settings: in vivo, 120 h, dose 20-40 mg/kg, time 5 day
B16-F10 [34] = experiment: Antitumor activity against mouse B16-F10 cells bearing C57BL/6 mouse assessed as reduction in tumor weight at 40 mg/kg, ip administered once daily for consecutive 5 days relative to control (reference value: 71.1%); format: functional; design: scale not given: the % may be the effect or the level left; settings: time 5 day
[35] = Toxicity in C57BL/6 mouse xenografted with mouse B16-F10 cells assessed as body weight loss at 20 mg/kg, po administered once daily for consecutive 5 days in presence of cisplatin relative to control; format: organism-based; settings: in vivo, 120 h, time 5 day
[36] = Toxicity in C57BL/6 mouse xenografted with mouse B16-F10 cells assessed as change in body weight at 20 to 40 mg/kg, po administered once daily for consecutive 5 days; format: organism-based; settings: in vivo, 120 h, dose 20-40 mg/kg, time 5 day
[37] = Genotoxicity in C57BL/6 mouse xenografted with mouse B16-F10 cells assessed as micronucleated polychromatic erythrocytes frequency in bone marrow cells at 40 mg/kg, ip for consecutive 5 days (reference value: 8.00); format: toxicity, organism-based; settings: in vivo, 120 h, time 5 day
[38] = Genotoxicity in C57BL/6 mouse xenografted with mouse B16-F10 cells assessed as ratio of polychromatic erythrocytes to total erythrocytes in bone marrow cells at 40 mg/kg, sc for consecutive 5 days (reference value: 0.60 +/-0.01); format: toxicity, organism-based; settings: in vivo, 120 h, time 5 day
[39] = Toxicity in C57BL/6 mouse xenografted with mouse B16-F10 cells assessed as reduction in spleen weight at 20 mg/kg, ip administered once daily for consecutive 5 days; format: organism-based; settings: in vivo, 120 h, time 5 day
[40] = Genotoxicity in C57BL/6 mouse xenografted with mouse B16-F10 cells assessed as micronucleated polychromatic erythrocytes frequency in bone marrow cells at 20 mg/kg, sc for consecutive 5 days (reference value: 10.00 +/-2.00); format: toxicity, organism-based; settings: in vivo, 120 h, time 5 day

Question: With `C=C[C@](C)(O)CC[C@H]1C(=C)CC[C@H]2C(C)(C)CCC[C@]12C` as the compound, how does the Activity (B16-F10 [1]) read?
Answer: Its Activity is 86.7%.

Question: What about the Ratio [2] of the same compound?
Answer: Its Ratio is 0.82.

Question: What about the Activity [3] of the same compound?
Answer: Its Activity is “Non-Toxic”.

Question: And the Activity [4]?
Answer: Its Activity is “Non-Toxic”.

Question: And the Activity (B16-F10 [5])?
Answer: Its Activity is 9.3%.

Question: What about the Activity [6] of the same compound?
Answer: Its Activity is “Toxic”.

Question: What about the Activity [7] of the same compound?
Answer: Its Activity is “Non-Toxic”.

Question: What about the Activity [8] of the same compound?
Answer: Its Activity is “Non-Toxic”.

Question: What about the Activity [9] of the same compound?
Answer: Its Activity is 6.

Question: And the Activity [10]?
Answer: Its Activity is 7.33.

Question: And the Activity [11]?
Answer: Its Activity is “Toxic”.

Question: What about the Activity (B16-F10 [12]) of the same compound?
Answer: The Activity was 48.5%.

Question: And the Activity [13]?
Answer: Its Activity is “Non-Toxic”.

Question: And the Activity [14]?
Answer: The Activity was 5.67.

Question: And the Activity [15]?
Answer: Its Activity is “Non-Toxic”.

Question: What about the Activity [16] of the same compound?
Answer: The Activity was “Non-Toxic”.

Question: What about the Activity [17] of the same compound?
Answer: The Activity was “Non-Toxic”.

Question: And the Activity (B16-F10 [18])?
Answer: Its Activity is 62.4%.

Question: And the Activity [19]?
Answer: Its Activity is “Non-Toxic”.

Question: What about the Ratio [20] of the same compound?
Answer: The Ratio was 0.85.

Question: What about the Ratio [21] of the same compound?
Answer: Its Ratio is 0.83.

Question: What about the Activity [22] of the same compound?
Answer: Its Activity is “Non-Toxic”.

Question: And the Ratio [23]?
Answer: Its Ratio is 0.92.

Question: What about the Activity [24] of the same compound?
Answer: Its Activity is “Non-Toxic”.

Question: What about the Activity [25] of the same compound?
Answer: The Activity was “Non-Toxic”.

Question: What about the Activity (B16-F10 [26]) of the same compound?
Answer: Its Activity is “Active”.

Question: And the Activity (B16-F10 [27])?
Answer: Its Activity is 38.8%.

Question: And the Ratio [28]?
Answer: The Ratio was 0.9.

Question: What about the Activity [29] of the same compound?
Answer: The Activity was 8.

Question: What about the Activity (B16-F10 [30]) of the same compound?
Answer: Its Activity is “Active”.

Question: And the Activity [31]?
Answer: Its Activity is “Toxic”.

Question: And the Activity [32]?
Answer: The Activity was “Toxic”.

Question: And the Activity [33]?
Answer: The Activity was “Non-Toxic”.

Question: What about the Activity (B16-F10 [34]) of the same compound?
Answer: Its Activity is 64.9%.

Question: What about the Activity [35] of the same compound?
Answer: The Activity was “Toxic”.

Question: What about the Activity [36] of the same compound?
Answer: Its Activity is “Non-Toxic”.

Question: And the Activity [37]?
Answer: The Activity was 4.33.

Question: What about the Ratio [38] of the same compound?
Answer: Its Ratio is 0.85.

Question: And the Activity [39]?
Answer: Its Activity is “Toxic”.

Question: What about the Activity [40] of the same compound?
Answer: Its Activity is 6.
